Legend:
[1] = system: breast cancer cells (MCF-7); test: MTS-based cytotoxicity assay, MCF-7; assay type: cell-based, human; conditions: 72 h treatment, 0.205–50 μM, mean ± SEM
Protocol: (§1) In this study, we applied the most extensively used MTS-based assay, which provides a valuable tool for determining cell viability by evaluating metabolic activity. The cytostatic activity of the tested compounds was defined as the half-maximal inhibitory concentration (IC50) causing a 50% decrease in the metabolic activity of the cells. It was determined against breast cancer (MCF-7), fibrosarcoma (HT-1080), and prostate cancer (PC-3) cells.
(§2) The tested compounds were tested against three different human cancer cell lines (breast adenocarcinoma MCF-7 ATCC® HTB-22^TM, fibrosarcoma HT-1080 ATCC® CCL121^TM, and prostate adenocarcinoma PC-3 ATCC® CRL-1435^TM). For the cell viability experiment, cells were seeded in transparent 96-well plates (FALCON no. 353072, Corning, Durham, NC, USA) in MEM (Gibco no. 31095-029, UK) supplemented with 10% heat-inactivated FBS (Gibco no. 10500-064, UK). The cell seeding density was as follows: MCF-7 12,000 cells/well, HT-1080 7000 cells/well, PC-3 10,000 cells/well. Cells were seeded one day before treatment with the tested compounds and cultured overnight. The confluence on the treatment day was around 30%. The tested compounds were dissolved in DMSO as 10 mM stock solutions and kept under −4 °C. On the day of experimentation, the medium was removed and replaced with a fresh one that contained the following: (1) dimethylsulfoxide (DMSO < 0.1%, vehicle control (Veh)); (2) increasing the concentration of compounds (0.205–50 μM, performed as a 2.5-fold serial dilution for dose–response analysis). Treatment with compounds was carried out for 72 h. Each treatment was replicated three times in a single experiment, with three separate experiments conducted. (n = 9). When significant variability in the results occurred, an additional test was performed on certain compounds. During the incubation, the cells were examined under an inverted microscope to check if the compounds had not precipitated in the culture medium. The inhibitory effect of compounds on the cell was examined using an MTS-based assay (Promega, Madison, WI, USA) following the manufacturer’s protocol. The absorbance was measured at 490 nm using Tecan Spark’s multimode plate reader (Tecan, Männedorf, Switzerland). A reference wavelength of 630 nm was used to subtract the background. IC50 values were calculated by fitting a non-linear regression to a sigmoidal dose–response curve in GraphPad Prism version 8.0.1.

[2] = system: prostate cancer cells (PC-3); test: MTS-based cytotoxicity assay, PC-3; assay type: cell-based, human; conditions: 72 h treatment, 0.205–50 μM, mean ± SEM
Protocol: as §1, §2

[3] = system: fibrosarcoma cells (HT-1080); test: MTS-based cytotoxicity assay, HT-1080; assay type: cell-based, human; conditions: 72 h treatment, 0.205–50 μM, mean ± SEM
Protocol: as §1, §2

HCT-116 = system: HCT-116; parameters: method as in PMID 37903949; conditions: cytotoxic activity; cited from earlier work
[4] = system: human hepatoma cells (HepG2); test: Safety study in vitro (MTS viability), HepG2; assay type: cell-based; conditions: 0.205–50 μM, 72 h
Protocol: (§3) In drug development, particular attention should be paid to studying the safety profile of compounds. Promising drug candidates should not cause adverse effects on essential organ systems like the liver, kidney, or healthy cells in general. Systemic toxicity of the compound is the main factor limiting its therapeutic application and efficiency. In our study, a preliminary study on nephrotoxicity and hepatotoxicity was evaluated in human embryonic kidney cells (HEK293, ATCC® CRL1573™) and human hepatoma cells (HepG2, ATCC® HB8065™), respectively. HEK293 is commonly used to evaluate the cytotoxicity of nephrotoxic compounds [42]. HepG2 is a well-established in vitro human cell system to study liver toxicity. We also used healthy human skin fibroblast (HSF) to extend the cytotoxicity profile. All three cell lines were cultured in DMEM (Gibco no. 61965-026, UK) supplemented with 10% FBS (Gibco no. 10500-064, UK). For the experiment, cells were seeded (8 × 10^3 cells/100μL/well) in transparent 96-well plates (FALCON no. 353072, Corning, Durham, […], USA) and cultured overnight. […] DOX was a reference compound that adversely affected the liver, kidney, and healthy cells. Treatment with compounds was carried out for 72 h. Cell viability was examined using an MTS-based CellTiter96® AQueous One Solution Cell Proliferation Assay (Promega, Madison, WI, USA) following the manufacturer’s protocol.

[5] = system: human embryonic kidney cells (HEK293); test: Safety study in vitro (MTS viability), HEK293; assay type: cell-based; conditions: 0.205–50 μM, 72 h
Protocol: as §3

[6] = system: human skin fibroblast (HSF); test: Safety study in vitro (MTS viability), HSF; assay type: cell-based; conditions: 0.205–50 μM, 72 h
Protocol: as §3

[7] = system: colorectal adenoma cancer cell line (HT-29); parameters: method as in doi:10.1016/j.tet.2006.12.076; conditions: cancer cell line growth inhibition; cited from earlier work

Structure (SMILES)	IC50 ([1]; Homo sapiens, MCF7, 72 h)	IC50 ([2]; Homo sapiens, 72 h)	IC50 ([3]; Homo sapiens, HT-1080, 72 h)	also measured
O=c1c2ccccc2n(C[C@@H]2C[C@@H](P(=O)(OCc3ccccc3)OCc3ccccc3)N(Cc3ccccc3)O2)c(=O)n1Cc1cccc(F)c1 (relative stereo) [trans-16c, Dibenzyl cis- and trans-5-((3-(3-fluorobenzyl)-3,4-dihydro-2,4-dioxoquinazolin-1(2H)-yl)methyl)-2-benzylisoxazolidin-3-yl-3-phosphonate]	130 ± 9.97 µM	16.4 ± 4.32 µM	42.3 ± 3.48 µM	
O=c1c2ccccc2n(C[C@@H]2C[C@@H](P(=O)(OCc3ccccc3)OCc3ccccc3)N(Cc3ccccc3)O2)c(=O)n1Cc1ccc(F)cc1 (relative stereo) [trans-16d, Dibenzyl cis- and trans-5-((3-(4-fluorobenzyl)-3,4-dihydro-2,4-dioxoquinazolin-1(2H)-yl)methyl)-2-benzylisoxazolidin-3-yl-3-phosphonate]	88.9 ± 3.86 µM	13.9 ± 2.14 µM	35.6 ± 3.03 µM	
O=c1c2ccccc2n(C[C@@H]2C[C@@H](P(=O)(OCc3ccccc3)OCc3ccccc3)N(Cc3ccccc3)O2)c(=O)n1Cc1ccccc1[N+](=O)[O-] (relative stereo) [trans-16e, Dibenzyl cis- and trans-(2-benzyl-5-((3-(2-nitrobenzyl)-2,4-dioxo-3,4-dihydroquinazolin-1(2H)-yl)methyl)isoxazolidin-3-yl)phosphonate]	57.9 ± 8.36 µM	26.6 ± 1.09 µM	29.8 ± 4.75 µM	
O=c1c2ccccc2n(C[C@@H]2C[C@@H](P(=O)(OCc3ccccc3)OCc3ccccc3)N(Cc3ccccc3)O2)c(=O)n1Cc1cccc([N+](=O)[O-])c1 (relative stereo) [trans-16f, Dibenzyl cis- and trans-2-benzyl-5-((3-(3-nitrobenzyl)-2,4-dioxo-3,4-dihydroquinazolin-1(2H)-yl)methyl)isoxazolidin-3-yl)phosphonate]	59.4 ± 0.78 µM	18.1 ± 0.98 µM	23.1 ± 9.22 µM	
O=c1c2ccccc2n(C[C@@H]2C[C@@H](P(=O)(OCc3ccccc3)OCc3ccccc3)N(Cc3ccccc3)O2)c(=O)n1Cc1ccc([N+](=O)[O-])cc1 (relative stereo) [trans-16g, Dibenzyl cis- and trans-(2-benzyl-5-((3-(4-nitrobenzyl)-2,4-dioxo-3,4-dihydroquinazolin-1(2H)-yl)methyl)isoxazolidin-3-yl)phosphonate]	142 ± 5.11 µM	16.7 ± 3.48 µM	16.6 ± 3.11 µM	
O=C(O)c1ccc(NC(=S)NC(=O)c2ccc(-n3c(=O)[nH]c4ccccc4c3=O)cc2)cc1 [Compound 13]				IC50 (HCT-116): 1180 ± 60 nM
COc1cccc2c1C(=O)c1c(O)c3c(c(O)c1C2=O)C[C@@](O)(C(=O)CO)C[C@@H]3O[C@H]1C[C@H](N)[C@H](O)[C@H](C)O1 [Doxorubicin, reference compound]				Cell viability, HepG2 [4]: significant cytotoxic effect; Cell viability, HEK293 [5]: significant cytotoxic effect; Cell viability, HSF [6]: significant cytotoxic effect
CO[C@@]12[C@H](COC(N)=O)C3=C(C(=O)C(C)=C(N)C3=O)N1C[C@@H]1N[C@@H]12 [Mitomycin C]				GI, HT-29 [7]: 31%
O=c1c2ccccc2n(CC2CC(P(=O)(OCc3ccccc3)OCc3ccccc3)N(Cc3ccccc3)O2)c(=O)n1Cc1ccccc1 (stereo not drawn) [cis-16a/trans-16a (97:3), Dibenzyl cis- and trans-2-benzyl-5-((3-benzyl-3,4-dihydro-2,4-dioxoquinazolin-1(2H)-yl)methyl)isoxazolidin-3-yl-3-phosphonate]	90.3 ± 4.57 µM	12.6 ± 5.56 µM		Cell viability, HepG2 [4]: did not affect cell viability; Cell viability, HEK293 [5]: did not affect cell viability; Cell viability, HSF [6]: no adverse effect was observed; IC50 [3]: 19.9 ± 8.13 µM
O=c1c2ccccc2n(CC2CC(P(=O)(OCc3ccccc3)OCc3ccccc3)N(Cc3ccccc3)O2)c(=O)n1Cc1ccccc1F (stereo not drawn) [cis-16b/trans-16b (90:10), Dibenzyl cis- and trans-5-((3-(2-fluorobenzyl)-3,4-dihydro-2,4-dioxoquinazolin-1(2H)-yl)methyl)-2-benzylisoxazolidin-3-yl-3-phosphonate]	104 ± 7.38 µM	11.2 ± 1.99 µM	27.3 ± 5.43 µM	Cell viability, HepG2 [4]: did not affect cell viability; Cell viability, HEK293 [5]: did not affect cell viability; Cell viability, HSF [6]: no adverse effect was observed
O=c1c2ccccc2n(CC2CC(P(=O)(OCc3ccccc3)OCc3ccccc3)N(Cc3ccccc3)O2)c(=O)n1Cc1cccc(F)c1 (stereo not drawn) [cis-16c/trans-16c (90:10), Dibenzyl cis- and trans-5-((3-(3-fluorobenzyl)-3,4-dihydro-2,4-dioxoquinazolin-1(2H)-yl)methyl)-2-benzylisoxazolidin-3-yl-3-phosphonate]	238 ± 20.7 µM	17.6 ± 6.21 µM	20.5 ± 1.56 µM	
O=c1c2ccccc2n(CC2CC(P(=O)(OCc3ccccc3)OCc3ccccc3)N(Cc3ccccc3)O2)c(=O)n1Cc1ccc(F)cc1 (stereo not drawn) [cis-16d/trans-16d (96:4), Dibenzyl cis- and trans-5-((3-(4-fluorobenzyl)-3,4-dihydro-2,4-dioxoquinazolin-1(2H)-yl)methyl)-2-benzylisoxazolidin-3-yl-3-phosphonate]	116 ± 5.73 µM	16.4 ± 3.69 µM	10.4 ± 2.69 µM	
O=c1c2ccccc2n(CC2CC(P(=O)(OCc3ccccc3)OCc3ccccc3)N(Cc3ccccc3)O2)c(=O)n1Cc1ccccc1[N+](=O)[O-] (stereo not drawn) [cis-16e/trans-16e (70:30), Dibenzyl cis- and trans-(2-benzyl-5-((3-(2-nitrobenzyl)-2,4-dioxo-3,4-dihydroquinazolin-1(2H)-yl)methyl)isoxazolidin-3-yl)phosphonate]	59.1 ± 3.77 µM	26.6 ± 4.69 µM	59.6 ± 0.36 µM	
O=c1c2ccccc2n(CC2CC(P(=O)(OCc3ccccc3)OCc3ccccc3)N(Cc3ccccc3)O2)c(=O)n1Cc1cccc([N+](=O)[O-])c1 (stereo not drawn) [cis-16f/trans-16f (96:4), Dibenzyl cis- and trans-2-benzyl-5-((3-(3-nitrobenzyl)-2,4-dioxo-3,4-dihydroquinazolin-1(2H)-yl)methyl)isoxazolidin-3-yl)phosphonate]	91.7 ± 1.47 µM	24.8 ± 2.15 µM	17.1 ± 5.73 µM	
O=c1c2ccccc2n(CC2CC(P(=O)(OCc3ccccc3)OCc3ccccc3)N(Cc3ccccc3)O2)c(=O)n1Cc1ccc([N+](=O)[O-])cc1 (stereo not drawn) [cis-16g/trans-16g (88:12), Dibenzyl cis- and trans-(2-benzyl-5-((3-(4-nitrobenzyl)-2,4-dioxo-3,4-dihydroquinazolin-1(2H)-yl)methyl)isoxazolidin-3-yl)phosphonate]	116 ± 9.69 µM	21.5 ± 4.63 µM	16.4 ± 2.03 µM	
O=c1c2ccccc2n(CC2CC(P(=O)(OCc3ccccc3)OCc3ccccc3)N(Cc3ccccc3)O2)c(=O)n1Cc1ccccc1 (stereo not drawn) [trans-16a, Dibenzyl cis- and trans-2-benzyl-5-((3-benzyl-3,4-dihydro-2,4-dioxoquinazolin-1(2H)-yl)methyl)isoxazolidin-3-yl-3-phosphonate]				IC50 [1]: 96 ± 4.66 µM; IC50 [2]: 12.7 ± 3.45 µM; IC50 [3]: 40.5 ± 5.44 µM

Source: paper PMC11243672, “New 3-(Dibenzyloxyphosphoryl)isoxazolidine Conjugates of N1-Benzylated Quinazoline-2,4-diones as Potential Cytotoxic Agents against Cancer Cell Lines” (Molecules, 2024)
